Source: patent US20230405057A1, “MEDICAL COMPOSITIONS AND THEIR USE IN TREATING INFLAMMATORY BOWEL DISEASE” (BIOMILLENIA SAS, priority 2019, published 2023)
Entries after “also recorded” stand apart in the source; their conditions may differ.

Key:
Type in all cases: cell-based
Malassezia globosa [1] = assay: Modified disc diffusion assay with living Acetobacter culture; settings: 6 mm discs soaked with 15 ul exponentially growing Acetobacter culture or ketoconazole 1 mg/mL in DMSO; 5 days incubation
Procedure: (§1) FIG. 1|Inhibition assays of M. restricts and M. globose by growth of Acetobacter fabarum. Discs were soaked with ketoconazole (1 mg/ml in DMSO) or exponentially growing Acetobacter fabarum culture and placed on agar plates containing a soft layer inoculated with a single culture of the different Malassezia species to be tested. In the upper panel, inhibition of Malassezia globosa is shown; in the bottom panel, Malassezia restricta is shown.
(§2) In order to identify strains whose growth inhibits Malassezia, inhibition assays were performed using a modified disc diffusion method. This method is similar to the classical disk diffusion method that consists in depositing discs imbibed with potential inhibitory substances on Petri plates containing a strain of interest, except that the disks were imbibed with a living culture of an Acetobacter strain. After optimal growth of the strain of interest, growth inhibition can be observed around discs on which the growth of inhibitory bacteria has occurred. Ketoconazole (at 1 mg/mL in DMSO) was used as a positive control for Malassezia growth inhibition. The effect of growth of Acetobacter was tested on Malassezia restricta and Malassezia globosa. All Malassezia strains were streaked from −80° C. stock on Modified Leeming and Notman (MLN) agar plates and incubated 10 days at 30° C. […]

Malassezia restricta [2] = assay: as above; settings: 6 mm discs soaked with 15 ul exponentially growing Acetobacter culture or ketoconazole 1 mg/mL in DMSO; 5 days incubation
Procedure: as §1, §2

Malassezia globosa [3] = assay: Disc diffusion growth inhibition assay (supernatants); settings: 6 mm discs soaked with 15 ul supernatant or ketoconazole 1 mg/ml in DMSO; soft agar lawn; 5 days incubation
Procedure: (§3) FIG. 1|Inhibition assays of the fungicide ketoconazole as positive control for inhibition and Kazachstania unispora supernatant on M. sympodialis, M. furfur, M. restricts and M. globosa. Inhibition assays were performed using the disc diffusion method. Discs were soaked with ketoconazole (1 mg/ml) or K. unispora supernatant and placed on agar plates containing a soft layer inoculated with a single culture of the different Malassezia species to be tested.
(§4) In order to identify strains inhibiting Malassezia growth, inhibition assays were performed using the disc diffusion method. This method consists in disposing discs imbibed with potential inhibitory substances on Petri plates containing a strain of interest. After optimal growth of the strain of interest, growth inhibition can be observed around discs soaked with substances having an inhibitory effect. Potential inhibitory substances tested in this experiment are supernatants obtained after individually culturing a collection of fungal and bacterial strains. After an incubation of 10 days in their optimal broth, each culture was centrifuged and the supernatant was filtered and further stored at −20° C. Ketoconazole, a fungicide, was used as a positive control for Malassezia growth inhibition. It was diluted in dimethyl sulfoxide at 1 mg/ml. The collection of supernatants was tested on the following species from the genus Malassezia: Malassezia restricta, Malassezia globosa, Malassezia furfur and Malassezia sympodialis. All strains were streaked from −80° C. stock on Modified Leeming and Notman (MLN) agar plates and incubated 10 days at 30° C. A 5 ml liquid culture of each species was made in MLN broth and incubated at 30° C. for 2 days for M. furfur and M. sympodialis and 5 days for M. restricta and M. globosa. To allow a lawn growth of the different Malassezia strains tested, Petri plates were prepared as follows: a bottom layer of 50 ml Modified Sabouraud Dextrose (MSD) agar was poured in Petri plates. The soft agar, constituting the top layer, was a mix of 12.5 ml MSD agar, 10.5 ml MLN broth and 2 ml of liquid culture. Plates were allowed to dry for one hour, then, 6 mm-diameter Whatman™ discs were soaked with 15 ul of each thawed supernatants and ketoconazole and placed on the soft agar plate containing the solidified Malassezia monoculture layer. After an incubation of 5 days, inhibition area could be easily observed around discs. As expected, ketoconazole inhibited all 4 Malassezia species tested in this experiment. […] The strain from which the inhibitory supernatant has been produced was further sequenced using the Sanger technology. The internal transcribed spacer (ITS) of this strain was taxonomically assigned to the yeast Kazachstania unispora (BLASTn, 99% identity, 99% query cover, e-value 0.00).

Malassezia restricta [4] = assay: as above; settings: 6 mm discs soaked with 15 ul supernatant or ketoconazole 1 mg/ml in DMSO; soft agar lawn; 5 days incubation
Procedure: as §3, §4

Malassezia sympodialis = assay: as above; settings: 6 mm discs soaked with 15 ul supernatant or ketoconazole 1 mg/ml in DMSO; soft agar lawn; 5 days incubation
Procedure: as §3, §4

Malassezia furfur = assay: as above; settings: 6 mm discs soaked with 15 ul supernatant or ketoconazole 1 mg/ml in DMSO; soft agar lawn; 5 days incubation
Procedure: as §3, §4

SMILES: CC(=O)N1CCN(c2ccc(OCC3COC(Cn4ccnc4)(c4ccc(Cl)cc4Cl)O3)cc2)CC1 (stereo not drawn) [ketoconazole]
- growth inhibition (inhibition halo around disc) of Malassezia globosa (Malassezia globosa [1]): inhibits growth; also recorded: inhibited
- growth inhibition (inhibition halo around disc) of Malassezia restricta (Malassezia restricta [2]): inhibits growth; also recorded: inhibited
- growth inhibition (inhibition halo around disc) of Malassezia globosa (Malassezia globosa [3]): inhibits growth; also recorded: inhibited
- growth inhibition (inhibition halo around disc) of Malassezia restricta (Malassezia restricta [4]): inhibits growth; also recorded: inhibited
- growth inhibition (inhibition halo around disc) of Malassezia sympodialis (Malassezia sympodialis): inhibits growth; also recorded: inhibited
- growth inhibition (inhibition halo around disc) of Malassezia furfur (Malassezia furfur): inhibits growth; also recorded: inhibited
